Assay results reported in patent US20250340510A1, “Substituted Phenylbenzenesulfonamide Derivatives and Uses Thereof” (Nine Square Therapeutics Corporation, priority 2022, published 2025).

Target: TRPML1 (Homo sapiens, UniProt Q9GZU1)
Assay: Calcium flux in HEK293 overexpressing TRPML1 plasma membrane variant (FLIPR, Calcium 6 dye)
Assay type: cell-based
Conditions: HEK293/TRPML1-PM clone A5 cells; 4-parameter logistic fit; read-out: TRPML1 calcium flux (FLIPR) dose response: EC50
Source text: Example B1. Calcium Flux in HEK293 Overexpressing TRPML1 Plasma Membrane Variant—Calcium 6 Dye
Cells: HEK293/TRPML1-PM clone A5, clonal cell line containing mutant TRPML1 (both N- and C-terminal dileucine targeting motifs deleted) that localizes to the plasma membrane
Plates: Perkin Elmer Viewplate cat. #6007460, black optically clear, tissue culture treated 384-well plate
Calcium dye: Molecular Devices FLIPR Calcium 6 Assay Kit, cat. #R8190 or Fluo-4 Direct from Thermo Fisher, cat. #F10471
Tips: Molecular Devices 384-well FLIPR Tetra black tips, cat. #9000-0764 Example B1.2 Method
HEK293/TRPML1-PM clone A5 cells were trypsinized from flasks, counted, then diluted in media to 15,000 cells per 25 μL, and seeded into a black, 384-well viewplate, and cultured overnight.
One vial of calcium 6 dye was diluted with 10 mL of assay buffer (HBSS+20 mM HEPES pH 7.4) and 25 μL of the dilution was added per well to the cells.
After incubating for 2 hours at 37° C., the plate was moved to the FLIPR in the read position.
The compounds were diluted in EMEM with 0.125% FBS to 5× concentration and loaded in a 384-well plate according to the desired plate map for the assay, including DMSO alone and carbachol controls, then the plate was moved to the FLIPR in the source 2 position.
A box of tips was placed in the source 1 position within the FLIPR to complete the assay set up.
Once the run was started, an initial baseline fluorescent measurement was performed for 10 seconds (470-495 nm excitation and 515-575 nm emission) prior to adding the compounds.
12.5 μL of 5× test compound, DMSO alone, or carbachol were added via the FLIPR and real-time fluorescence measurements were performed for an additional 170 seconds with 1 read per second.
The data was normalized to baseline by calculating maximum fluorescence minus minimum fluorescence and plotted as response (fold) over the baseline versus log ([…] concentration). The EC50 was determined using a 4-parameter logistic curve fit in Graphpad Prism 9.

Sequence of TRPML1 (Q9GZU1 17-572 limits assumed): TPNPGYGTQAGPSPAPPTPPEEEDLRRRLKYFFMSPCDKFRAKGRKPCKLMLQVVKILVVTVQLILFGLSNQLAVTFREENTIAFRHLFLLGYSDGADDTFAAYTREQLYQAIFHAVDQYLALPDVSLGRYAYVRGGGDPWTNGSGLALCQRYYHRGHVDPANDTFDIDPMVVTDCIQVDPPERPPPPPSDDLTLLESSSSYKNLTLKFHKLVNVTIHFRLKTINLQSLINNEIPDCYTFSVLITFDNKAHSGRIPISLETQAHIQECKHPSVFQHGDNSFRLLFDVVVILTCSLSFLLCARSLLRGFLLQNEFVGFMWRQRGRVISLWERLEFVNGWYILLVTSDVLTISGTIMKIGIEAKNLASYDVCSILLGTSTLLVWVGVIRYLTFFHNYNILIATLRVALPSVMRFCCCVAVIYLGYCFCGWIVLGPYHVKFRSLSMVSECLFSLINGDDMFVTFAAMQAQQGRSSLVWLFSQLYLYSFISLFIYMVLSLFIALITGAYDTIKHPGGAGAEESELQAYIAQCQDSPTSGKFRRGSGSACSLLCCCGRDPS

Point of comparison: `Cc1cnn(C)c1CN(C)c1ccccc1NS(=O)(=O)c1ccc(S(=O)(=O)N(C)C)cc1` [Compound 80, N1-(2-(((1,4-dimethyl-1H-pyrazol-5-yl)methyl)(methyl)amino)phenyl)-N4,N4-dimethylbenzene-1,4-disulfonamide], EC50 5.94 µM. Against it:
- Cc1nn(C)cc1CN(C)c1ccccc1NS(=O)(=O)c1ccc(S(=O)(=O)N(C)C)cc1 [Compound 50, N1-(2-(((1,3-dimethyl-1H-pyrazol-4-yl)methyl)(methyl)amino)phenyl)-N4,N4-dimethylbenzene-1,4-disulfonamide] — within 1.5-fold, 6.55 µM
- Cc1ncsc1CN(C)c1ccccc1NS(=O)(=O)c1ccc(S(=O)(=O)N(C)C)cc1 [Compound 51, N1,N1-dimethyl-N4-(2-(methyl((4-methylthiazol-5-yl)methyl)amino)phenyl)benzene-1,4-disulfonamide] — 1.9-fold lower, 3.05 µM
- CN(c1cccc(Cl)c1NS(=O)(=O)c1ccc(S(=O)(=O)N(C)C)cc1)C1CCCCC1 [Compound 52, N1-(2-chloro-6-(cyclohexyl(methyl)amino)phenyl)-N4,N4-dimethylbenzene-1,4-disulfonamide] — within 1.5-fold, 5.78 µM
- CN(c1ccc(F)cc1NS(=O)(=O)c1ccc(S(=O)(=O)N(C)C)cc1)C1CCCCC1 [Compound 53, N1-(2-(cyclohexyl(methyl)amino)-5-fluorophenyl)-N4,N4-dimethylbenzene-1,4-disulfonamide] — 5.6-fold lower, 1.06 µM
- CN(C)CCN(C)c1ccccc1NS(=O)(=O)c1ccc(S(=O)(=O)N(C)C)cc1 [Compound 54, N1-(2-((2-(dimethylamino)ethyl)(methyl)amino)phenyl)-N4,N4-dimethylbenzene-1,4-disulfonamide] — higher, > 10 µM
- CN(Cc1cncn1C)c1ccccc1NS(=O)(=O)c1ccc(S(=O)(=O)N(C)C)cc1 [Compound 56, N1,N1-dimethyl-N4-(2-(methyl((1-methyl-1H-imidazol-5-yl)methyl)amino)phenyl)benzene-1,4-disulfonamide] — higher, > 10 µM
- CN(Cc1cccnc1)c1ccccc1NS(=O)(=O)c1ccc(S(=O)(=O)N(C)C)cc1 [Compound 57, N1,N1-dimethyl-N4-(2-(methyl(pyridin-3-ylmethyl)amino)phenyl)benzene-1,4-disulfonamide] — within 1.5-fold, 4.61 µM
- Cc1cnccc1CN(C)c1ccccc1NS(=O)(=O)c1ccc(S(=O)(=O)N(C)C)cc1 [Compound 58, N1,N1-dimethyl-N4-(2-(methyl((3-methylpyridin-4-yl)methyl)amino)phenyl)benzene-1,4-disulfonamide] — within 1.5-fold, 6.88 µM
- CN(Cc1cn(C)cn1)c1ccccc1NS(=O)(=O)c1ccc(S(=O)(=O)N(C)C)cc1 [Compound 59, N1,N1-dimethyl-N4-(2-(methyl((1-methyl-1H-imidazol-4-yl)methyl)amino)phenyl)benzene-1,4-disulfonamide] — 2.7-fold lower, 2.24 µM
- CCN(c1ccccc1NS(=O)(=O)c1ccc(S(=O)(=O)N(C)C)cc1)C1CCCCC1 [Compound 60, N1-(2-(cyclohexyl(ethyl)amino)phenyl)-N4,N4-dimethylbenzene-1,4-disulfonamide] — 69-fold lower, 0.0867 µM
- CN(C)S(=O)(=O)c1ccc(S(=O)(=O)Nc2ccccc2N(C=O)Cc2cncs2)cc1 [Compound 61, N-(2-((4-(N,N-dimethylsulfamoyl)phenyl)sulfonamido)phenyl)-N-(thiazol-5-ylmethyl)formamide] — higher, > 30 µM
- CN(CCC1COC1)c1ccccc1NS(=O)(=O)c1ccc(S(=O)(=O)N(C)C)cc1 [Compound 62, N1,N1-dimethyl-N4-(2-(methyl(2-(oxetan-3-yl)ethyl)amino)phenyl)benzene-1,4-disulfonamide] — higher, > 30 µM
- CN(C)S(=O)(=O)c1ccc(S(=O)(=O)Nc2ccccc2N(C(=O)C(F)(F)F)C2CCCCC2)cc1 [Compound 63, N-cyclohexyl-N-(2-((4-(N,N-dimethylsulfamoyl)phenyl)sulfonamido)phenyl)-2,2,2-trifluoroacetadmie] — 1.9-fold higher, 11 µM
- Cc1ncc(F)cc1CN(C)c1ccccc1NS(=O)(=O)c1ccc(S(=O)(=O)N(C)C)cc1 [Compound 75, N1-(2-(((5-fluoro-2-methylpyridin-3-yl)methyl)(methyl)amino)phenyl)-N4,N4-dimethylbenzene-1,4-disulfonamide] — 2.8-fold lower, 2.14 µM
- CN(Cc1cnc2n1CCC2)c1ccccc1NS(=O)(=O)c1ccc(S(=O)(=O)N(C)C)cc1 [Compound 79, N1-(2-(((6,7-dihydro-5H-pyrrolo[1,2-a]imidazol-3-yl)methyl)(methyl)amino)phenyl)-N4,N4-dimethylbenzene-1,4-disulfonamide] — 4.8-fold higher, 28.5 µM
- CCN(CC)c1ccccc1NS(=O)(=O)c1ccc(S(=O)(=O)N(C)C)cc1 [Compound 82, N1-(2-(diethylamino)phenyl)-N4,N4-dimethylbenzene-1,4-disulfonamide] — 1.6-fold lower, 3.76 µM
- CN(Cc1cn2c(n1)CCC2)c1ccccc1NS(=O)(=O)c1ccc(S(=O)(=O)N(C)C)cc1 [Compound 83, N1-(2-(((6,7-dihydro-5H-pyrrolo[1,2-a]imidazol-2-yl)methyl)(methyl)amino)phenyl)-N4,N4-dimethylbenzene-1,4-disulfonamide] — higher, > 30 µM
- CN(c1cccc(C#N)c1NS(=O)(=O)c1ccc(S(=O)(=O)N(C)C)cc1)C1CCCCC1 [Compound 86, N1-(2-cyano-6-(cyclohexyl(methyl)amino)phenyl)-N4,N4-dimethylbenzene-1,4-disulfonamide] — higher, > 30 µM
- CN(c1cc(C#N)ccc1NS(=O)(=O)c1ccc(S(=O)(=O)N(C)C)cc1)C1CCCCC1 [Compound 88, N1-(4-cyano-2-(cyclohexyl(methyl)amino)phenyl)-N4,N4-dimethylbenzene-1,4-disulfonamide] — 2.8-fold lower, 2.14 µM
- CN(CCc1nccs1)c1ccccc1NS(=O)(=O)c1ccc(S(=O)(=O)N(C)C)cc1 [Compound 90, N1,N1-dimethyl-N4-(2-(methyl(2-(thiazol-2-yl)ethyl)amino)phenyl)benzene-1,4-disulfonamide] — 4.2-fold lower, 1.4 µM
- CN(c1cccc(C(F)(F)F)c1NS(=O)(=O)c1ccc(S(=O)(=O)N(C)C)cc1)C1CCCCC1 [Compound 92, N1-(2-(cyclohexyl(methyl)amino)-6-(trifluoromethyl)phenyl)-N4,N4-dimethylbenzene-1,4-disulfonamide] — within 1.5-fold, 7.44 µM
- CN(Cc1ccn(C2CC2)n1)c1ccccc1NS(=O)(=O)c1ccc(S(=O)(=O)N(C)C)cc1 [Compound 94, N1-(2-(((1-cyclopropyl-1H-pyrazol-3-yl)methyl)(methyl)amino)phenyl)-N4,N4-dimethylbenzene-1,4-disulfonamide] — 2.3-fold lower, 2.53 µM
- CN(CC1CCOC(C)(C)C1)c1ccccc1NS(=O)(=O)c1ccc(S(=O)(=O)N(C)C)cc1 (stereo not shown) [Compound 100, N1-(2-(((2,2-dimethyltetrahydro-2H-pyran-4-yl)methyl)(methyl)amino)phenyl)-N4,N4-dimethylbenzene-1,4-disulfonamide] — 5.1-fold lower, 1.16 µM
- CN(Cc1cnsc1)c1ccccc1NS(=O)(=O)c1ccc(S(=O)(=O)N(C)C)cc1 [Compound 101, N1-(2-((isothiazol-4-ylmethyl)(methyl)amino)phenyl)-N4,N4-dimethylbenzene-1,4-disulfonamide] — 2-fold lower, 3.02 µM
- CN(c1ccccc1NS(=O)(=O)c1ccc(S(=O)(=O)N(C)C)cc1)C1CCCCC1(F)F (stereo not shown) [Compound 103, N1-(2-((2,2-difluorocyclohexyl) (methyl)amino)phenyl)-N4,N4-dimethylbenzene-1,4-disulfonamide] — 3-fold lower, 1.97 µM
- CN(CCCn1cccn1)c1ccccc1NS(=O)(=O)c1ccc(S(=O)(=O)N(C)C)cc1 [Compound 105, N1-(2-((3-(1H-pyrazol-1-yl)propyl)(methyl)amino)phenyl)-N4,N4-dimethylbenzene-1,4-disulfonamide] — within 1.5-fold, 4.36 µM
- CN(CC1CCCO1)c1ccccc1NS(=O)(=O)c1ccc(S(=O)(=O)N(C)C)cc1 (stereo not shown) [Compound 107, N1,N1-dimethyl-N4-(2-(methyl((tetrahydrofuran-2-yl)methyl)amino)phenyl)benzene-1,4-disulfonamide] — 4.3-fold lower, 1.39 µM
- CN(c1c(NS(=O)(=O)c2ccc(S(=O)(=O)N(C)C)cc2)cccc1C(F)(F)F)C1CCCCC1 [Compound 109, N1-(2-(cyclohexyl(methyl)amino)-3-(trifluoromethyl)phenyl)-N4,N4-dimethylbenzene-1,4-disulfonamide] — 21-fold lower, 0.28 µM
- CN(CC1CCOC1)c1ccccc1NS(=O)(=O)c1ccc(S(=O)(=O)N(C)C)cc1 (stereo not shown) [Compound 112, N1,N1-dimethyl-N4-(2-(methyl((tetrahydrofuran-3-yl)methyl)amino)phenyl)benzene-1,4-disulfonamide] — 1.6-fold lower, 3.72 µM
- CCOCCCN(C)c1ccccc1NS(=O)(=O)c1ccc(S(=O)(=O)N(C)C)cc1 [Compound 113, N1-(2-((3-ethoxypropyl)(methyl)amino)phenyl)-N4,N4-dimethylbenzene-1,4-disulfonamide] — higher, > 10 µM
